Article PMC9866852, “New Chlorinated Metabolites and Antiproliferative Polyketone from the Mangrove Sediments-Derived Fungus Mollisia sp. SCSIO41409” (Marine Drugs, 2022)
Converted amounts (≈) assume the structure as drawn. Like-named read-outs stand apart in the source and are kept apart here. Marks after values point to notes of the source that are not given here.

Columns and labels:
[1] = test system: Botrytis cinerea; assay: Antifungal MIC, twofold serial dilution in 96-well plates; format: cell-based; conditions: B. cinerea
[2] = test system: 22Rv1 cells; assay: Cytotoxicity / antiproliferative MTT assay; format: cell-based, human; conditions: read-out: Cytotoxic IC50
Protocol: (§1) Cell viability was analyzed by 3-(4,5)-[…] (MTT) assay as previously described. In brief, cells were seeded in a 96-well plate at a density of 5 × 10^3 per well overnight and treated with compounds for demand time. OD570 values were detected using a Hybrid Multi-Mode Reader (Synergy H1, BioTek, Santa Clara, CA, USA). The experiment was independently repeated three times.

[3] = test system: Septoria nodorum Berk.; assay: Antifungal MIC, twofold serial dilution in 96-well plates; format: cell-based; conditions: Parastagonospora nodorum; S. nodorum
[4] = test system: Erysipelothrix rhusiopathiae WH13013; assay: Antibacterial MIC, twofold serial dilution in 96-well plates; format: cell-based; conditions: E. rhusiopathiae; for MIC: Erysipelothrix rhusiopathiae, WH13013
[5] = test system: Fusarium oxysporum f.sp. niveum; assay: Antifungal MIC, twofold serial dilution in 96-well plates; format: cell-based
[6] = test system: Fusarium graminearum schw.; assay: microbe, parasite or virus in culture; format: cell-based; conditions: read-out: Antifungal MIC
[7] = test system: Escherichia coli ATCC 25922; assay: Antibacterial MIC, twofold serial dilution in 96-well plates; format: cell-based; conditions: ATCC25922, E. coli
[8] = test system: Streptococcus suis SC19; assay: as above; format: cell-based; conditions: S. suis; for MIC: Streptococcus suis, SC19
[9] = test system: Staphylococcus aureus ATCC 25923; assay: as above; format: cell-based; conditions: S. aureus; for MIC: Staphylococcus aureus, ATCC25923
[10] = test system: Verticillium dahlia kieb.; assay: Antifungal MIC, twofold serial dilution in 96-well plates; format: cell-based; conditions: V. dahlia
[11] = test system: Botrytis cinerea, Verticillium dahlia kieb., Fusarium graminearum schw., Fusarium oxysporum f.sp. niveum, Rhizoctonia solani, Septoria nodorum Berk.; format: cell-based; conditions: range over B. cinerea, V. dahlia, R. solani, S. nodorum
[12] = test system: Rhizoctonia solani; assay: Antifungal MIC, twofold serial dilution in 96-well plates; format: cell-based; conditions: R. solani
[13] = test system: PC-3 cells; assay: Cytotoxicity / antiproliferative MTT assay; format: cell-based; conditions: Homo sapiens, PC-3, PC-3 (androgen receptor negative); read-out: Cytotoxic IC50
Protocol: as §1

[14] = test system: PC-3 cells; assay: Apoptosis assay, annexin V-FITC/PI flow cytometry; format: cell-based, human; conditions: 48 h
Excerpt: (§2) Then, cells were collected and stained with annexin V-FITC and PI solution, following the manufacturer’s manual (BMS500FI-300, Thermo Fisher Scientific, Waltham, MA, USA). Apoptotic rates and cell cycle distribution of PC-3 cells were examined and analyzed by flow cytometer (NovoCyte, Agilent, Santa Clara, CA, USA). Each experiment was repeated three times independently.

[15] = test system: HepG2, A549, Hela, WPMY-1, MC3T3-E1 cells; assay: Antiproliferative MTT assay, summary over other cells; format: cell-based; conditions: range over HepG2, A549, Hela, read-out: IC50 values against other cells
Protocol: as §1

[16] = test system: PC-3 cells; assay: Plate clone formation assay; format: cell-based, human; conditions: 0.16, 0.32 and 0.64 μM; two weeks
Protocol: The cell clone colony formation was observed after two weeks of treatment. Cells were fixed with 4% formaldehyde for 30 min and washed with PBS buffer, then stained with crystal violet stain solution for 30 min. The dye solution was removed and washed the cells with PBS buffer again. Cell colonies were recorded and analyzed by the colony count analysis system (GelCount, Oxford Optronix, Oxford, UK). The experiment was repeated three times independently.

[17] = test system: PC-3 cells; assay: Cell cycle distribution, flow cytometry; format: cell-based, human; conditions: 48 h
Excerpt: as §2

[18] = test system: A549 cells; assay: Cytotoxicity / antiproliferative MTT assay; format: cell-based; conditions: Homo sapiens, read-out: Cytotoxic IC50
Protocol: as §1

[19] = test system: HepG2 cells; assay: Cytotoxicity / antiproliferative MTT assay; format: cell-based; conditions: read-out: Cytotoxic IC50
Protocol: as §1

[20] = test system: WPMY-1 cells; assay: Cytotoxicity / antiproliferative MTT assay; format: cell-based; conditions: read-out: Cytotoxic IC50
Protocol: as §1

[21] = test system: Hela cells; assay: Cytotoxicity / antiproliferative MTT assay; format: cell-based; conditions: Homo sapiens, read-out: Cytotoxic IC50
Protocol: as §1

[22] = Cytotoxicity / antiproliferative MTT assay; format: cell-based; conditions: human, WPMY-1 cells, read-out: Cytotoxic IC50
Protocol: as §1

[23] = biological target: human CCR5 receptor; parameters: method as in PMID 15217290; conditions: read-out: IC50, inhibition of binding with human CCR5 receptor; cited from earlier work
[24] = Homo sapiens, 22Rv1, 22Rv1 (androgen receptor positive)

Work on O=C1NC(=O)C(Cl)=C1Cl [Compound 3, 3,4-dichloro-1H-pyrrole-2,5-dione] yielded an MIC [1] of 25 µg/mL (≈ 151 µM), an IC50 [2, 24] of 8.35 µM and an MIC [3] of 25 µg/mL (≈ 151 µM). The MIC [4] was greater than 100 µg/mL, the MIC [5] was 50 µg/mL (≈ 301 µM) and the MIC [6] was 50 µg/mL (≈ 301 µM). The melting point was 173 to 175 °C, the MIC [7] was greater than 100 µg/mL and the MIC [8] was 100 µg/mL (≈ 603 µM). The MIC [9] was 100 µg/mL (≈ 603 µM), the MIC [10] was 25 µg/mL (≈ 151 µM) and the “MIC values against six fungi” value [11] was 25 to 50 µg/mL. It also gave an MIC [12] of 50 µg/mL (≈ 301 µM) and an IC50 [13] of 9.6 µM.
With CC=C(C)C(OC(C)=O)C(C)C1=CC(=O)C2=C(OC3(C)CCC4OC(C(C)(C)O)CCC4(C)C3C2)C1=O (stereo not drawn) [Compound 4, stemphone C] the MIC [1] was greater than 100 µg/mL, the IC50 ([2]; 22Rv1 (androgen receptor positive)) was 5.81 µM and the IC50 [2, 24] was less than 10 µM. For the same compound, the “Q3-1 quadrant, cells” value ([14]; PC-3, 2.5 μM) was 3.29%, the “Q3-2 quadrant (late apoptosis), cells” value ([14]; PC-3, 2.5 μM) was 1.02% and the “Q3-3 quadrant, cells” value ([14]; PC-3, 2.5 μM) was 94.52%. For the same compound, the “Q3-4 quadrant (early apoptosis), cells” value ([14]; PC-3, 2.5 μM) was 1.17%, the “Q3-1 quadrant, cells” value ([14]; PC-3, 5.0 μM) was 4.69% and the “Q3-2 quadrant (late apoptosis), cells” value ([14]; PC-3, 5.0 μM) was 4.89%. The “Q3-3 quadrant, cells” value ([14]; PC-3, 5.0 μM) was 83.56%, the “Q3-4 quadrant (early apoptosis), cells” value ([14]; PC-3, 5.0 μM) was 6.86% and the “Q3-1 quadrant, cells” value ([14]; PC-3, 10.0 μM) was 14.56%. The “Q3-2 quadrant (late apoptosis), cells” value ([14]; PC-3, 10.0 μM) was 36.84%, the “Q3-3 quadrant, cells” value ([14]; PC-3, 10.0 μM) was 33.95% and the “Q3-4 quadrant (early apoptosis), cells” value ([14]; PC-3, 10.0 μM) was 14.64%. It also gave an MIC [3] of 50 µg/mL (≈ 97.2 µM), an IC50 [15] of 3.63 to 11.7 µM and an MIC [4] of 1.56 µg/mL (≈ 3.03 µM). The “Formation of clonal colonies of PC-3 cells” value [16] was “significantly inhibited the formation of clonal colonies of PC-3 cells”, the MIC [5] was greater than 100 µg/mL and the MIC [6] was greater than 100 µg/mL. For the same compound, the “Freq S” value ([17]; PC-3, 10.0 μM) was 59.14%, the MIC [7] was greater than 100 µg/mL and the MIC [8] was 6.25 µg/mL (≈ 12.1 µM). For the same compound, the MIC [9] was greater than 100 µg/mL, the MIC [10] was greater than 100 µg/mL and the MIC [12] was greater than 100 µg/mL. For the same compound, the IC50 [18] was 11.7 µM, the IC50 ([19]; HepG2) was 7.11 µM and the IC50 ([19]; Homo sapiens, HepG2, HepG2) was less than 10 µM. It also gave an IC50 [20] of 5.53 µM, an IC50 [21] of 11.5 µM and an IC50 [22] of less than 10000 nM.
C[C@@H]1C[C@@H]([C@H](O)CC2CC(=O)NC(=O)C2)C(=O)[C@@H](C)C1 [Cycloheximide, reference compound] gave an MIC [1] of 12.5 µg/mL (≈ 44.4 µM), an MIC [3] of 12.5 µg/mL (≈ 44.4 µM) and an MIC [5] greater than 100 µg/mL. For the same compound, the MIC [6] was 12.5 µg/mL (≈ 44.4 µM), the MIC [10] was 12.5 µg/mL (≈ 44.4 µM) and the MIC [12] was 100 µg/mL (≈ 355 µM).
In the case of CC(=O)O[C@@]12CO[C@@H]1C[C@H](O)[C@@]1(C)C(=O)[C@H](O)C3=C(C)[C@@H](OC(=O)[C@H](O)[C@@H](NC(=O)OC(C)(C)C)c4ccccc4)C[C@@](O)([C@@H](OC(=O)c4ccccc4)[C@H]21)C3(C)C [Docetaxel, reference compound], the IC50 [2, 24] is reported as 0.03 µM, the “Q3-1 quadrant, cells” value ([14]; PC-3, 1.0 μM) is reported as 5.87% and the “Q3-2 quadrant (late apoptosis), cells” value ([14]; PC-3, 1.0 μM) is reported as 1.68%. For the same compound, the “Q3-3 quadrant, cells” value ([14]; PC-3, 1.0 μM) was 89.89%, the “Q3-4 quadrant (early apoptosis), cells” value ([14]; PC-3, 1.0 μM) was 2.57% and the “Freq G2 (G2/M)” value ([17]; PC-3, 1.0 μM) was 71.23%. It also gave an IC50 [18] of 29.9 µM, an IC50 ([19]; Homo sapiens, HepG2, HepG2) of 179 µM and an IC50 [13] of 0.12 µM. It also gave an IC50 [22] of 510 nM.
In the case of CC(C)=CCC[C@H](C)[C@H]1CC[C@]2(C)C[C@H]3[C@H](C(=O)C[C@@]3(C)O)/C(C=O)=C\C[C@@H]12 [Ophiobolin C], the IC50 [23] is given as 40 µM.
[H]/N=C(/N)N[C@H]1[C@H](O)[C@@H](O)[C@H](O[C@@H]2O[C@@H](C)[C@](O)(C=O)[C@H]2O[C@@H]2O[C@@H](CO)[C@H](O)[C@@H](O)[C@@H]2NC)[C@@H](N/C(N)=N\[H])[C@@H]1O [Streptomycin, reference compound] showed an MIC [7] of 50 µg/mL (≈ 86 µM).
In the case of Penicillin [reference compound], the “Antibacterial MIC” value [4] is reported as 6.25^b μg/mL, the “Antibacterial MIC” value ([4]; listed as penicillin) is reported as 6.25 µg/mL and the “Antibacterial MIC” value [8] is reported as 1.56 ^b μg/mL. The “Antibacterial MIC” value [9] was 6.25 ^b μg/mL.
